Experimental data published in patent publication US20230381155A1, “TREATMENT OF BREAST CANCER USING COMBINATION THERAPIES COMPRISING GDC-9545 AND GDC-0077” (Genentech, Inc., priority 2021, published 2023).
“Also recorded” adds a separate entry of the source.

Tests used:
[1] = biological target: Class I alpha isoform of phosphatidylinositol 3-kinase (PI3K-α) (Homo sapiens, UniProt P42336); assay: biochemical inhibition of PI3K-α
[2] = test system: other Class I PI3Ks, including the β, δ, and γ isoforms; assay: biochemical inhibition of other Class I PI3Ks; conditions: δ, and γ isoforms versus PI3K-α
[3] = test system: tumor cells bearing mutant p110a; assay: potency in tumor cells, mutant versus wild-type p110a; format: cell-based
[4] = test system: PIK3CA-mutant breast cancer cell lines; assay: proliferation and apoptosis in PIK3CA-mutant breast cancer cell lines; format: cell-based; conditions: nonclinical studies
[5] = test system: mutant p110a; assay: degradation of mutant p110a; format: cell-based; conditions: nonclinical studies
Excerpt: Without being bound by any particular theory, GDC-0077 appears to exert its activity by binding to the adenosine binding site of p110a, thereby inhibiting the phosphorylation of membrane-bound phosphatidylinositol 4,5-bisphosphate (PIP2) to phosphatidylinositol 3,4,5-trisphophate (PIP3). This inhibition decreases downstream activation of pathway effectors including Akt and S6RP, resulting in decreased cellular proliferation, metabolism, and angiogenesis.

[6] = test system: human breast cancer xenograft models harboring PIK3CA mutations; assay: tumor growth in breast cancer xenograft models; format: in vivo; conditions: nonclinical studies
[7] = test system: pAkt, pPRAS40, pS6RP; assay: downstream PI3K pathway markers; conditions: nonclinical studies
[8] = test system: patients with measurable disease; assay: clinical study of single agent GDC-0077, RECIST v1.1 response; format: in vivo, human; conditions: among 20 patients
Excerpt: In one study using single agent administration of GDC-0077, among 20 patients with measurable disease treated with a 6-mg, 9-mg, or 12-mg QD starting dose of GDC-0077 as a single agent, 5 patients (25%) achieved PRs, while 9 patients (45%) achieved clinical benefit (defined as the percentage of patients achieving confirmed Response Evaluation Criteria in Solid Tumors, Version 1.1 [RECIST v1.1]-defined CR, PR, and/or SD [non-complete response/non-progressive disease for patients with non-measurable disease at baseline] for 24 weeks). Further, 14 of the 20 patients were enrolled at the 6-mg or 9-mg QD starting dose, and 3 patients had received prior treatment with a CDK4/6i.

[9] = test system: ESR1 wildtype T-47D (PIK3CA.H1047R) cells; assay: CyQUANT relative viability, T-47D wildtype ESR1; format: cell-based; conditions: 300 nM GDC-9545, 80 nM GDC-0077, alone or combined; 0.1 nmol/L E2; 6 to 8 days
Procedure: Combination of GDC-9545 and GDC-007 was investigated and compared to efficacy of each single agent and to an AI+palbociclib control. ESR1 wildtype MCF-7 (PIK3CA.E545K) and T-47D (PIK3CA.H1047R) cells, and engineered ESR1 mutant cells [MCF-7.ER.Y537S, T-47D.ER.D538G] were grown under standard cell culture conditions in RPMI media with 10% fetal bovine serum. One day prior to the addition of drugs, cells were seeded in 384-well plates in phenol red-free RPMI with 10% charcoal-stripped fetal bovine serum in order to deprive the cells of hormones. Single agent 300 nM GDC-9545, 80 nM GDC-0077, 125 nM palbociclib or a combination thereof, were tested in quadruplicate in the presence of 0.1 nmol/L estradiol (E2) during a 6-day or 8-day incubation period. The absence of E2 in the media (−E2) serves to mimic treatment with an Aromatase Inhibitor (AI). The combination of E2 withdrawal plus palbociclib—reflecting the current standard of care for metastatic breast cancer—was included. Drug concentrations of GDC-0077 and palbociclib were chosen to be clinically relevant, based on human exposures. […] The relative number of viable cells at the 6/8-day timepoint was determined by CyQUANT (ThermoFisher, C7026).

[10] = human steady-state total drug exposure, GDC-9545 versus fulvestrant; format: in vivo; conditions: GDC-9545 30 mg QD versus fulvestrant 500 mg IM monthly
[11] = format: in vitro ADME
[12] = test system: ER, wild-type and ESR1-mutant contexts; assay: in vitro cell and biochemical assays, potency versus fulvestrant
[13] = biological target: T1, ER (Homo sapiens, UniProt P03372); assay: competition with estrogens for binding to the ER
T1 sequence (P03372 1-595): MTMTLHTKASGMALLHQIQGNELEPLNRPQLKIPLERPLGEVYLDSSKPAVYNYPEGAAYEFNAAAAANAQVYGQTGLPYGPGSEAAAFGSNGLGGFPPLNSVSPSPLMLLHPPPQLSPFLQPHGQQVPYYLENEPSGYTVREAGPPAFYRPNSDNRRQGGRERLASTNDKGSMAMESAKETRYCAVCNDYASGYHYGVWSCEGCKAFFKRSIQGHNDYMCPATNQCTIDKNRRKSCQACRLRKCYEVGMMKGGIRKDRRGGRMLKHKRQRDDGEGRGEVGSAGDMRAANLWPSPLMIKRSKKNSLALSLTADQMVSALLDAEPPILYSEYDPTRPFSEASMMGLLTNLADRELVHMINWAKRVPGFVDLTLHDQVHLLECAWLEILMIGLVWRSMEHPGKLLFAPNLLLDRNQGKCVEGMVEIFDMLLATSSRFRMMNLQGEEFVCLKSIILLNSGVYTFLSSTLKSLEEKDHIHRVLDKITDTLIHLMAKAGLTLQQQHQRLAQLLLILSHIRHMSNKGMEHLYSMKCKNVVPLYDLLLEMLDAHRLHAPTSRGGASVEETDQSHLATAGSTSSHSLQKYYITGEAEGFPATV

[14] = oral bioavailability; conditions: in vivo
[15] = test system: ER+ breast cancer models of ESR1-wild type and ESR1-mutation-bearing disease; assay: nonclinical activity in ER+ breast cancer models
[16] = test system: ESR1 wildtype MCF-7 (PIK3CA.E545K) cells; assay: CyQUANT relative viability, MCF-7 wildtype ESR1; format: cell-based; conditions: 300 nM GDC-9545, 80 nM GDC-0077, alone or combined; 0.1 nmol/L E2; 6 to 8 days
Procedure: (§1) Cells were treated as shown for 6 to 8 days, and relative viability was assessed. *p<0.0001, parametric t-test.
ESR1 wildtype MCF-7 (PIK3CA.E545K) and T-47D (PIK3CA.H1047R) cells, and engineered ESR1 mutant cells [MCF-7.ER.Y537S, T-47D.ER.D538G] were grown under standard cell culture conditions in RPMI media with 10% fetal bovine serum. One day prior to the addition of drugs, cells were seeded in 384-well plates in phenol red-free RPMI with 10% charcoal-stripped fetal bovine serum in order to deprive the cells of hormones. Single agent 300 nM GDC-9545, 80 nM GDC-0077, 125 nM palbociclib or a combination thereof, were tested in quadruplicate in the presence of 0.1 nmol/L estradiol (E2) during a 6-day or 8-day incubation period. The absence of E2 in the media (−E2) serves to mimic treatment with an Aromatase Inhibitor (AI). The combination of E2 withdrawal plus palbociclib—reflecting the current standard of care for metastatic breast cancer—was included. […] The relative number of viable cells at the 6/8-day timepoint was determined by CyQUANT (ThermoFisher, C7026).

[17] = test system: MCF-7.ER.Y537S cells; assay: CyQUANT relative viability, MCF-7.ER.Y537S; format: cell-based; conditions: 300 nM GDC-9545, 80 nM GDC-0077, alone or combined; 0.1 nmol/L E2; 6 to 8 days
Procedure: as §1
One day prior to the addition of drugs, cells were seeded in 384-well plates in phenol red-free RPMI with 10% charcoal-stripped fetal bovine serum in order to deprive the cells of hormones. Single agent 300 nM GDC-9545, 80 nM GDC-0077, 125 nM palbociclib or a combination thereof, were tested in quadruplicate in the presence of 0.1 nmol/L estradiol (E2) during a 6-day or 8-day incubation period. The absence of E2 in the media (−E2) serves to mimic treatment with an Aromatase Inhibitor (AI). The combination of E2 withdrawal plus palbociclib—reflecting the current standard of care for metastatic breast cancer—was included. Drug concentrations of GDC-0077 and palbociclib were chosen to be clinically relevant, based on human exposures. 300 nM GDC-9545 is a saturating concentration that is lower than the human dose equivalent of 30 mg. The relative number of viable cells at the 6/8-day timepoint was determined by CyQUANT (ThermoFisher, C7026).

[18] = test system: T-47D.ER.D538G cells; assay: CyQUANT relative viability, T-47D.ER.D538G; format: cell-based; conditions: 300 nM GDC-9545, 80 nM GDC-0077, alone or combined; 0.1 nmol/L E2; 6 to 8 days
Procedure: as §1

[19] = test system: ER+ breast cancer xenograft models; assay: xenograft models, efficacy versus fulvestrant; format: in vivo; conditions: fulvestrant dosed according to a clinically relevant dosing scheme
[20] = test system: frontline patients; conditions: NCT01602380; cited from earlier work
[21] = 6-mg, 9-mg, or 12-mg QD starting dose, single agent
[22] = CR, PR and/or SD for 24 weeks, RECIST v1.1

Chain of Class I alpha isoform of phosphatidylinositol 3-kinase (PI3K-α) (P42336 whole entry, canonical isoform): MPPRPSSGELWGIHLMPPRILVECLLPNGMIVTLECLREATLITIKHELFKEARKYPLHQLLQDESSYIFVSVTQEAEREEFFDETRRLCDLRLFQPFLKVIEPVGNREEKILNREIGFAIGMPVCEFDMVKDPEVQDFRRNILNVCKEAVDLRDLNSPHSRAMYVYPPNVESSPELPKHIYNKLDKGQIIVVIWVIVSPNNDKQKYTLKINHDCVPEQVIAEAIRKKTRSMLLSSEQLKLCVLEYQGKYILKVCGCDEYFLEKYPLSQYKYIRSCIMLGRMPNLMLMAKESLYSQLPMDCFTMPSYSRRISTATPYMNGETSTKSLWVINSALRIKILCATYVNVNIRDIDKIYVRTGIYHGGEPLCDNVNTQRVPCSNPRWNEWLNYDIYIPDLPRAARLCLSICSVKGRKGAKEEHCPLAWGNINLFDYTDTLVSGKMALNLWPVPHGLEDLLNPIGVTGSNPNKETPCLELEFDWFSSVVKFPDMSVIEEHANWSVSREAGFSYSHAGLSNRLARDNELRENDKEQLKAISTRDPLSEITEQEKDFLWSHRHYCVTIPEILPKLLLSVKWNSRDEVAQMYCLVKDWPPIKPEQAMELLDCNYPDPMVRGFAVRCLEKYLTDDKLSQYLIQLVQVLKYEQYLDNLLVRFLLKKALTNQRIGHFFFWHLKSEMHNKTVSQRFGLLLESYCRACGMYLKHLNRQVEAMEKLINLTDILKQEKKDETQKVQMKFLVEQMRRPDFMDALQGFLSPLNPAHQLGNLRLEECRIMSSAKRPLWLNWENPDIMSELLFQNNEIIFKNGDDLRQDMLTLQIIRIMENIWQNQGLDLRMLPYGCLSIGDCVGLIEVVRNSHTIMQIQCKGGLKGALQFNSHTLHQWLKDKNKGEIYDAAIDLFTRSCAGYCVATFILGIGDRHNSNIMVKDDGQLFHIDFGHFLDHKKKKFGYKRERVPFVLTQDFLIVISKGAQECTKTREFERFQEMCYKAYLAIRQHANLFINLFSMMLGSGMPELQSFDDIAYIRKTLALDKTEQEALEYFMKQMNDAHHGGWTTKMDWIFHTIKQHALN
Chain of Class I alpha isoform of phosphatidylinositol 3-kinase (PI3K-α) (P27986 whole entry partner, canonical isoform): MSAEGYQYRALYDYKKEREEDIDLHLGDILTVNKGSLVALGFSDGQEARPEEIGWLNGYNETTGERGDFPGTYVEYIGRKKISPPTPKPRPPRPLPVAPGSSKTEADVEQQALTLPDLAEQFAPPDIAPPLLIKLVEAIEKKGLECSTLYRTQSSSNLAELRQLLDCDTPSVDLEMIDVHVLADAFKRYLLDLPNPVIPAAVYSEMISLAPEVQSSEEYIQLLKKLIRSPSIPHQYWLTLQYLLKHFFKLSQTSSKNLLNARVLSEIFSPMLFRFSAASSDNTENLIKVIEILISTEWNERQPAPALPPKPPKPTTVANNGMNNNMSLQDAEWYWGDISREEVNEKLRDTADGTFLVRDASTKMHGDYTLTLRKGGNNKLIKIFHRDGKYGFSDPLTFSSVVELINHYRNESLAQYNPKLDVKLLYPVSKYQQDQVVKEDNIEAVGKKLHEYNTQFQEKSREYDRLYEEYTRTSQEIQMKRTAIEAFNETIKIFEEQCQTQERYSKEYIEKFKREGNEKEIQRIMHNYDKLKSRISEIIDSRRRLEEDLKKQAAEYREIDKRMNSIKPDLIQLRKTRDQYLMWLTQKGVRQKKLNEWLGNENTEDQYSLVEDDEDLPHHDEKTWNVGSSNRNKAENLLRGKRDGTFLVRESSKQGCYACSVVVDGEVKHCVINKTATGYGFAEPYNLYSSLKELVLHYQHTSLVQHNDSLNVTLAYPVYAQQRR

C[C@H](Nc1ccc2c(c1)OCCn1cc(N3C(=O)OC[C@H]3C(F)F)nc1-2)C(N)=O [GDC-0077, (2S)-2-[[2-[(4S)-4-(Difluoromethyl)-2-oxo-3-oxazolidinyl]-5,6-dihydroimidazo[1,2-d][1,4]benzoxazepin-9-yl]amino]propanamide]
inhibition of PI3K-α [1]: potent and selective inhibitor | less potent biochemical inhibition of other Class I PI3Ks (selectivity) [2]: > 300 fold | potency in cells bearing mutant p110a over cells bearing wild-type p110a [3]: increased potency | apoptosis [4]: induces apoptosis | proliferation [4]: inhibits proliferation | degradation of mutant p110a [5]: specifically degrades mutant p110a | tumor growth [6]: inhibits tumor growth | downstream PI3K pathway markers pAkt, pPRAS40, pS6RP [7]: reduces downstream PI3K pathway markers | patients achieving PRs [8, 21]: 5 patients | patients achieving PRs, percentage [8, 21]: 25% | patients achieving clinical benefit [8, 22]: 9 patients | patients achieving clinical benefit, percentage [8, 22]: 45% | anti-proliferative effect / relative viability [9]: did not achieve the same anti-proliferative activity as the combination of the agents

C[C@@H]1Cc2c([nH]c3ccccc23)[C@@H](c2c(F)cc(NC3CN(CCCF)C3)cc2F)N1CC(F)(F)CO [GDC-9545]
human steady-state total drug exposure relative to fulvestrant [10]: approximately 10 fold | plasma protein binding compared with fulvestrant [11]: lower plasma protein binding | potency relative to fulvestrant [12]: up to 10 times | potency of competition with estrogens for binding to the ER [13]: low nanomolar potency | oral bioavailability [14]: orally bioavailable | nonclinical activity [15]: robust nonclinical activity | anti-proliferative effect / relative viability [16]: greater impact on cell viability versus estrogen withdrawal | anti-proliferative effect / relative viability [17]: reduced cell numbers relative to the control condition | anti-proliferative effect / relative viability [9]: reduced cell proliferation relative to control treated cells; also recorded: did not achieve the same anti-proliferative activity as the combination of the agents | anti-proliferative effect / relative viability [18]: considerably more impactful than E2 withdrawal

C[C@]12CC[C@@H]3c4ccc(O)cc4C[C@@H](CCCCCCCCC[S+]([O-])CCCC(F)(F)C(F)(F)F)[C@H]3[C@@H]1CC[C@@H]2O (stereo partly shown) [fulvestrant]
efficacy in xenograft models [19]: less efficacious than GDC-9545 | clinical benefit compared with anastrozole [20]: benefit over anastrozole
